The values that follow come from patent publication US20110209253A1, “Method for Improving Plant Health” (BASF SE, priority 2008, published 2011).

Where two headings read alike, the source gives them in different places.

The experiment concerns Wheat plants (Triticum aestivum cv. Monopol). Kind of experiment: Growth-promoting effect on wheat plants after foliar treatment (Example 3). It counts as in vivo. Conditions: after 18 days; for activity at 7.5 g/ha / activity at 15 g/ha: Triticum aestivum, 432 h. Here is the method: Wheat plants (Triticum aestivum cv. Monopol) were grown in soil with ten plants per pot (13 cm diameter) under greenhouse conditions. Plants at the 2nd leaf stage were sprayed with aqueous solutions of formulated compounds: • Compound 2: 5-Methyl-2-trifluoromethyl-furan-3-carboxylic acid (1-methylcarbamoyl-2-phenyl-ethyl)-amide • Compound 3: 1-Methyl-3-trifluoromethyl-1H-pyrazole-4-carboxylic acid (1-methylcarbamoyl-2-phenyl-ethyl)-amide • Compound 4: Methyl-carbamic acid-2-methylcarbamoyl-2-[(1-methyl-3-trifluoromethyl-1H-pyrazole-4-carbonyl)-amino]-ethyl ester • Compound 5: Methyl-carbamic acid-2-methylcarbamoyl-2-[(1-methyl-3-trifluoromethyl-1H-pyrazole-4-carbonyl)-amino]-1-(tetrahydro-pyran-4-yl)-ethyl ester • Compound 6: Methyl-carbamic acid 1,1-dimethyl-2-methylcarbamoyl-2-[(1-methyl-3-trifluoromethyl-1H-pyrazole-4-carbonyl)-amino]-ethyl ester • Compound 7: 1-Methyl-3-trifluoromethyl-1H-pyrazole-4-carboxylic acid (2-hydroxy-3-methoxy-2-methoxymethyl-1-methylcarbamoyl-propyl)-amide • Compound 8: Methyl-carbamic acid 1,1-bis-methoxymethyl-2-methylcarbamoyl-2-[(1-methyl-3-trifluoromethyl-1H-pyrazole-4-carbonyl)-amino]-ethyl ester • Compound 9: Methyl-carbamic acid (E)-1-methyl-1-{methylcarbamoyl-[(1-methyl-3-trifluoromethyl-1H-pyrazole-4-carbonyl)-amino]-methyl}-but-2-enyl ester The compounds were applied at two different dose rates (15 and 7.5 g ai/ha) and the spray volume was 750 I/ha. Six replicate pots with ten plants each were used per treatment. After 18 days plants were harvested and growth parameters were determined. The recorded parameters were fresh weight (FW) and dry weight (DW). Mean values of results, standard deviation (SD) and percentage to control were calculated.

[1] abbreviates: 7.5 g/ha foliar spray, read-out: Shoot DW % of control.
Where [2] appears, read: 7.5 g/ha foliar spray, read-out: Shoot FW % of control.
Where [3] appears, read: 15 g/ha foliar spray, read-out: Shoot DW % of control.
[4] abbreviates: 15 g/ha foliar spray, read-out: Shoot FW % of control.

As for `CNC(=O)OC(C1CCOCC1)C(NC(=O)c1cn(C)nc1C(F)(F)F)C(=O)NC` (stereo not shown) [Compound 5, Methyl-carbamic acid 2-methylcarbamoyl-2-[(1-methyl-3-trifluoromethyl-1H-pyrazole-4-carbonyl)-amino]-1-(tetrahydro-pyran-4-yl)-ethyl ester], the “Shoot DW” value reads like this: (7.5 g/ha foliar spray) 3.8 g; (15 g/ha foliar spray) 3.7 g. The “Shoot FW” value (7.5 g/ha foliar spray) worked out at 41.2 g and the “Shoot FW” value (15 g/ha foliar spray) came out at 39.6 g. Also, the activity at 7.5 g/ha worked out at 135% under setting [1] and 135% under setting [2]. Besides, the activity at 15 g/ha was determined as 133% under setting [3] and 129% under setting [4].

As for `CNC(=O)OCC(NC(=O)c1cn(C)nc1C(F)(F)F)C(=O)NC` (stereo not shown) [Compound 4, Methyl-carbamic acid-2-methylcarbamoyl-2-[(1-methyl-3-trifluoromethyl-1H-pyrazole-4-carbonyl)-amino]-ethyl ester], the “Shoot DW” value is, setting by setting: (7.5 g/ha foliar spray) 3.7 g; (15 g/ha foliar spray) 3.8 g. Besides, the “Shoot FW” value reads like this: (7.5 g/ha foliar spray) 37.7 g; (15 g/ha foliar spray) 40.1 g. Moreover, the activity at 7.5 g/ha reads like this: under setting [1], 131%; under setting [2], 123%. Moreover, the activity at 15 g/ha under setting [3] came out at 137% and the activity at 15 g/ha under setting [4] came out at 131%.

For `CNC(=O)OC(C)(C)C(NC(=O)c1cn(C)nc1C(F)(F)F)C(=O)NC` (stereo not shown) [Compound 6, Methyl-carbamic acid 1,1-dimethyl-2-methylcarbamoyl-2-[(1-methyl-3-trifluoromethyl-1H-pyrazole-4-carbonyl)-amino]-ethyl ester], the “Shoot DW” value reads like this: (7.5 g/ha foliar spray) 3.7 g; (15 g/ha foliar spray) 3.6 g. Besides, the “Shoot FW” value by setting is: (7.5 g/ha foliar spray) 39.2 g; (15 g/ha foliar spray) 38.2 g. Further, the activity at 7.5 g/ha reads like this: under setting [1], 132%; under setting [2], 128%. For the same compound, the activity at 15 g/ha under setting [3] came to 130% and the activity at 15 g/ha under setting [4] came to 125%.

For `CNC(=O)C(Cc1ccccc1)NC(=O)c1cc(C)oc1C(F)(F)F` (stereo not shown) [Compound 2, 5-Methyl-2-trifluoromethyl-furan-3-carboxylic acid (1-methylcarbamoyl-2-phenyl-ethyl)-amide], the “Shoot DW” value reads like this: (7.5 g/ha foliar spray) 3.8 g; (15 g/ha foliar spray) 3.7 g. Also, the “Shoot FW” value is on record as 40.9 g (7.5 g/ha foliar spray) and 38.7 g (15 g/ha foliar spray). The activity at 7.5 g/ha reads like this: under setting [1], 135%; under setting [2], 134%. For the same compound, the activity at 15 g/ha under setting [3] was determined as 131% and the activity at 15 g/ha under setting [4] is 126%.

On to `C/C=C/C(C)(OC(=O)NC)C(NC(=O)c1cn(C)nc1C(F)(F)F)C(=O)NC` (stereo not shown) [Compound 9, Methyl-carbamic acid (E)-1-methyl-1-{methylcarbamoyl-[(1-methyl-3-trifluoromethyl-1H-pyrazole-4-carbonyl)-amino]-methyl}-but-2-enyl ester], for which the “Shoot DW” value turned out to be 3.6 g (7.5 g/ha foliar spray) and 3.8 g (15 g/ha foliar spray). Further, the “Shoot FW” value is, setting by setting: (7.5 g/ha foliar spray) 38.8 g; (15 g/ha foliar spray) 39.4 g. The activity at 7.5 g/ha under setting [1] stood at 129% and the activity at 7.5 g/ha under setting [2] stood at 127%. Moreover, the activity at 15 g/ha runs as follows: under setting [3], 135%; under setting [4], 129%.

For the compound `CNC(=O)C(Cc1ccccc1)NC(=O)c1cn(C)nc1C(F)(F)F` (stereo not shown) [Compound 3, 1-Methyl-3-trifluoromethyl-1H-pyrazole-4-carboxylic acid (1-methylcarbamoyl-2-phenyl-ethyl)-amide], the “Shoot DW” value reads like this: (7.5 g/ha foliar spray) 3.8 g; (15 g/ha foliar spray) 3.8 g. The “Shoot FW” value is reported as 39.4 g (7.5 g/ha foliar spray) and 39.1 g (15 g/ha foliar spray). For the same compound, the activity at 7.5 g/ha amounted to 135% under setting [1] and 129% under setting [2]. The activity at 15 g/ha reads like this: under setting [3], 135%; under setting [4], 128%.

For `CNC(=O)C(NC(=O)c1cn(C)nc1C(F)(F)F)C(O)(COC)COC` (stereo not shown) [Compound 7, 1-Methyl-3-trifluoromethyl-1H-pyrazole-4-carboxylic acid (2-hydroxy-3-methoxy-2-methoxymethyl-1-methylcarbamoyl-propyl)-amide], the “Shoot DW” value is, setting by setting: (7.5 g/ha foliar spray) 3.7 g; (15 g/ha foliar spray) 3.7 g. Moreover, the “Shoot FW” value (7.5 g/ha foliar spray) was 38.7 g and the “Shoot FW” value (15 g/ha foliar spray) is on record as 40.2 g. Further, the activity at 7.5 g/ha runs as follows: under setting [1], 131%; under setting [2], 126%. Further, the activity at 15 g/ha by setting is: under setting [3], 133%; under setting [4], 131%.

Consider `CNC(=O)OC(COC)(COC)C(NC(=O)c1cn(C)nc1C(F)(F)F)C(=O)NC` (stereo not shown) [Compound 8, Methyl-carbamic acid 1,1-bis-methoxymethyl-2-methylcarbamoyl-2-[(1-methyl-3-trifluoromethyl-1H-pyrazole-4-carbonyl)-amino]-ethyl ester], for which the “Shoot DW” value reads like this: (7.5 g/ha foliar spray) 3.9 g; (15 g/ha foliar spray) 3.7 g. In addition, the “Shoot FW” value (7.5 g/ha foliar spray) is given as 39.6 g and the “Shoot FW” value (15 g/ha foliar spray) amounted to 39.4 g. Further, the activity at 7.5 g/ha under setting [1] was found to be 138% and the activity at 7.5 g/ha under setting [2] was determined as 129%. Further, the activity at 15 g/ha by setting is: under setting [3], 131%; under setting [4], 121%.
